# In patent US8642343B2, “Blood separating agent and blood collection container” (Sekisui Medical Co., Ltd., priority 2010, dated 2014):
# Test: Solubility of polymerization inhibitors at 25° C.
# Details: in water
SMILES,Solubility (25° C.),Solubility (25° C.) (listed as hydroquinone) [g/100 ml]
"COc1ccc(O)cc1 [Material 1, p-methoxyphenol]",4 g/100 ml,
"CC(C)(C)c1cc(O)c(C(C)(C)C)cc1O [Material 2, 2,5-di-t-butylhydroquinone]",0.002 g/100 ml,
"c1ccc2c(c1)Nc1ccccc1S2 [Material 3, phenothiazine]",insoluble,
"Oc1ccc(O)cc1 [Material 4, hydroquinone, reference compound]",7 g/100 mL g/100 ml,7
